Tests used:
Phakopsora pachyrhizi = Phakopsora pachyrhizi / soybean / leaf disc preventative (Asian soybean rust); type: in vivo; details: foliar, 200 ppm in the applied formulation, soybean leaf disks, inoculated one day after application, vs untreated, 12 to 14 days after application, read-out: disease control
How it was run: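 Soybean leaf discs on water agar sprayed with formulated compound diluted in water, then inoculated one day later with spore suspension on the lower surface. Held 24-36 h dark at 20 °C, 75% rh, then 12 h light/day; percent disease control versus untreated scored 12-14 days after application.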

Uromyces viciae-fabae = Uromyces viciae-fabae / field bean / leaf disc preventative (faba-bean rust); type: in vivo; details: foliar, 288 h, 100 ppm in the applied formulation, field bean leaf discs, inoculated two hours after application, vs untreated, 12 days after application, read-out: disease control
Protocol: Leaf disks or leaf segments of various plant species are cut from plants grown in a greenhouse. The cut leaf disks or segments are placed in multiwell plates (24-well format) onto water agar. The leaf disks are sprayed with a test solution before (preventative) or after (curative) inoculation. Compounds to be tested are prepared as DMSO solutions (max. 10 mg/ml) which are diluted to the appropriate concentration with 0.025% Tween20 just before spraying. The inoculated leaf disks or segments are incubated under defined conditions (temperature, relative humidity, light, etc.) according to the respective test system. A single evaluation of disease level is carried out 3 to 14 days after inoculation, depending on the pathosystem. Percent disease control relative to the untreated check leaf disks or segments is then calculated.
Example 5: Fungicidal Activity Against Uromyces viciae-fabael Field Bean/Leaf Disc Preventative (Faba-Bean Rust)
Field bean leaf discs are placed on water agar in multiwell plates (96-well format) and 10 μl of the Formulated test compound diluted in acetone and a spreader pipetted onto the leaf disc. Two hours after application leaf discs are inoculated by spraying a spore suspension on the lower leaf surface. The leaf discs are incubated in a climate cabinet at 22° C. with 18 hour day and 70% relative humidity. The activity of a compound is assessed as percent disease control compared to untreated when an appropriate level of disease damage appears in untreated check leaf disks (12 days after application).
The following compounds at 100 ppm in the applied Formulation give at least 80% disease control in this test when compared to untreated control leaf discs under the same conditions, which show extensive disease development.

[1] = test system: Glomerella lacenarium (Colletotrichum lacenarium); assay: Glomerella lacenarium (Colletotrichum lacenarium) liquid culture / cucumber / preventative (anthracnose); type: cell-based; details: 20 ppm, liquid culture in PDB, 24° C., inhibition of growth measured photometrically 3 to 4 days after application, vs untreated, read-out: disease control
How it was run: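 Cryopreserved conidia in potato dextrose broth were added to test compound in a 96-well microtiter plate and incubated at 24 °C. Growth inhibition read photometrically 3–4 days after application, as percent activity versus untreated check.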

[2] = test system: Puccinia recondita f. Sp. Tritici; assay: Puccinia recondita f. sp. tritici / wheat / leaf disc preventative (brown rust); type: in vivo; details: foliar, 200 ppm in the applied formulation, wheat leaf segments cv. Kanzler, inoculated 1 day after application, vs untreated, 7 to 9 days after application, read-out: disease control
How it was run: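 Segments of cv. Kanzler wheat on agar received a spray of compound formulation diluted in water and were inoculated with spores one day afterwards. Kept at 19° C and 75% rh under 12 h/12 h light; disease control relative to untreated checks rated at 7–9 days post-application.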

[3] = test system: Puccinia recondita f. Sp. Tritici; assay: Puccinia recondita f. sp. tritici / wheat / leaf disc curative (brown rust); type: in vivo; details: foliar, 200 ppm in the applied formulation, wheat leaf segments cv. Kanzler, compound applied 1 day after inoculation, vs untreated, 6 to 8 days after application, read-out: disease control
How it was run: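 Wheat leaf segments (cv. Kanzler) on agar inoculated with brown rust spores, held dark at 19 °C/75% RH, then sprayed 1 day post-inoculation with formulated compound diluted in water (curative). Incubated at 19 °C/75% RH, 12 h light/12 h dark; percent disease control versus untreated scored 6–8 days after application.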

O=C(Nc1ccc(-c2noc(C(F)(F)F)n2)cc1)c1cncc(N2CCOCC2)n1 [Compound 1.2, 6-morpholino-N-[4-[5-(trifluoromethyl)-1,2,4-oxadiazol-3-yl]phenyl]pyrazine-2-carboxamide]
pest or weed control at 200 ppm (Phakopsora pachyrhizi): ≥ 80% | pest or weed control at 100 ppm (Uromyces viciae-fabae): ≥ 80%

CC1Cc2c(Br)ccc(C(=O)Nc3ccc(-c4noc(C(F)(F)F)n4)cc3)c2S1(=O)=O (stereo not shown) [Compound 1.39, 4-bromo-2-methyl-1,1-dioxo-N-[4-[5-(trifluoromethyl)-1,2,4-oxadiazol-3-yl]phenyl]-2,3-dihydrobenzo-thiophene-7-carboxamide]
inhibition of growth at 20 ppm [1]: ≥ 80% | pest or weed control at 100 ppm (Uromyces viciae-fabae): ≥ 80%

CC12CCC(C(=O)Nc3ccc(-c4noc(C(F)(F)F)n4)cc3)(OC1=O)C2(C)C (stereo not shown) [Compound 1.4, 1,7,7-trimethyl-2-oxo-N-[4-[5-(trifluoromethyl)-1,2,4-oxadiazol-3-yl]phenyl]-3-oxabicyclo[2.2.1] heptane-4-carboxamide]
inhibition of growth at 20 ppm [1]: ≥ 80% | pest or weed control at 200 ppm (Phakopsora pachyrhizi): ≥ 80% | pest or weed control at 100 ppm (Uromyces viciae-fabae): ≥ 80%

CC(C)(C(=O)Nc1ccc(-c2noc(C(F)(F)F)n2)cc1)c1ncc(Cl)cc1Cl [Compound 1.32, 2-(3,5-dichloro-2-pyridyl)-2-methyl-N-[4-[5-(trifluoromethyl)-1,2,4-oxadiazol-3-yl]phenyl] propanamide]
pest or weed control at 200 ppm [2]: ≥ 80% | pest or weed control at 100 ppm (Uromyces viciae-fabae): ≥ 80%

COC1=CC(=O)CC(C(=O)Nc2ccc(-c3noc(C(F)(F)F)n3)cc2)C1 (stereo not shown) [Compound 1.31, 3-methoxy-5-oxo-N-[4-[5-(trifluoromethyl)-1,2,4-oxadiazol-3-yl]phenyl]cyclohex-3-ene-1-carboxamide]
pest or weed control at 200 ppm [2]: ≥ 80% | inhibition of growth at 20 ppm [1]: ≥ 80% | pest or weed control at 200 ppm (Phakopsora pachyrhizi): ≥ 80% | pest or weed control at 100 ppm (Uromyces viciae-fabae): ≥ 80%

O=C(Nc1ccc(-c2noc(C(F)(F)F)n2)cc1)C(F)c1ccccc1 (stereo not shown) [Compound 1.16, 2-fluoro-2-phenyl-N-[4-[5-(trifluoromethyl)-1,2,4-oxadiazol-3-yl]phenyl]acetamide]
pest or weed control at 200 ppm [2]: ≥ 80% | inhibition of growth at 20 ppm [1]: ≥ 80% | pest or weed control at 200 ppm (Phakopsora pachyrhizi): ≥ 80% | pest or weed control at 100 ppm (Uromyces viciae-fabae): ≥ 80%

O=C(NOCc1ccccc1F)Nc1ccc(-c2noc(C(F)(F)F)n2)cc1 [Compound 1.127, 1-[(2-fluorophenyl)methoxy]-3-[4-[5-(trifluoromethyl)-1,2,4-oxadiazol-3-yl]phenyl]urea]
inhibition of growth at 20 ppm [1]: ≥ 80% | melting point: 140 to 143 °C

CS(=O)(=O)CC(=O)Nc1ccc(-c2noc(C(F)(F)F)n2)cc1 [Compound 1.10, 2-methylsulfonyl-N-[4-[5-(trifluoromethyl)-1,2,4-oxadiazol-3-yl]phenyl]acetamide]
inhibition of growth at 20 ppm [1]: ≥ 80% | pest or weed control at 100 ppm (Uromyces viciae-fabae): ≥ 80%

CN(C(=O)C1CCC1)c1ccc(-c2noc(C(F)(F)F)n2)cc1 [Compound 2.25, N-methyl-N-[4-[5-(trifluoromethyl)-1,2,4-oxadiazol-3-yl]phenyl]cyclobutane-carboxamide]
pest or weed control at 200 ppm [2]: ≥ 80% | inhibition of growth at 20 ppm [1]: ≥ 80% | pest or weed control at 200 ppm (Phakopsora pachyrhizi): ≥ 80% | pest or weed control at 100 ppm (Uromyces viciae-fabae): ≥ 80% | pest or weed control at 200 ppm [3]: ≥ 80%

CC(=O)N(C(C)=O)c1ccc(-c2noc(C(F)(F)F)n2)cn1 [Compound 1.45, N-acetyl-N-[5-[5-(trifluoromethyl)-1,2,4-oxadiazol-3-yl]-2-pyridyl]acetamide]
pest or weed control at 200 ppm [2]: ≥ 80% | inhibition of growth at 20 ppm [1]: ≥ 80% | pest or weed control at 200 ppm (Phakopsora pachyrhizi): ≥ 80% | pest or weed control at 100 ppm (Uromyces viciae-fabae): ≥ 80% | pest or weed control at 200 ppm [3]: ≥ 80%

O=C(Cn1cncn1)Nc1ccc(-c2noc(C(F)(F)F)n2)cc1 [Compound 1.23, 2-(1,2,4-triazol-1-yl)-N-[4-[5-(trifluoromethyl)-1,2,4-oxadiazol-3-yl]phenyl]acetamide]
pest or weed control at 200 ppm [2]: ≥ 80% | inhibition of growth at 20 ppm [1]: ≥ 80% | pest or weed control at 100 ppm (Uromyces viciae-fabae): ≥ 80%

CON(CC1CC1)C(=O)Nc1ccc(-c2noc(C(F)(F)F)n2)cc1 [Compound 1.69, 1-(cyclopropylmethyl)-1-methoxy-3-[4-[5-(trifluoromethyl)-1,2,4-oxadiazol-3-yl]phenyl]urea]
inhibition of growth at 20 ppm [1]: ≥ 80% | melting point: 117 to 120 °C

CC(=O)N(CC(=O)NC(C)(C)C)c1ccc(-c2noc(C(F)(F)F)n2)cc1 [Compound 1.56, 2-[N-acetyl-4-[5-(trifluoromethyl)-1,2,4-oxadiazol-3-yl]anilino]-N-tert-butyl-acetamide]
pest or weed control at 200 ppm [2]: ≥ 80% | inhibition of growth at 20 ppm [1]: ≥ 80% | pest or weed control at 100 ppm (Uromyces viciae-fabae): ≥ 80% | pest or weed control at 200 ppm [3]: ≥ 80%

C#CC(C)(C)C(=O)Nc1ccc(-c2noc(C(F)(F)F)n2)cc1 [Compound 1.5, 2,2-dimethyl-N-[4-[5-(trifluoromethyl)-1,2,4-oxadiazol-3-yl]phenyl]but-3-ynamide]
pest or weed control at 200 ppm [2]: ≥ 80% | inhibition of growth at 20 ppm [1]: ≥ 80% | pest or weed control at 200 ppm (Phakopsora pachyrhizi): ≥ 80% | pest or weed control at 100 ppm (Uromyces viciae-fabae): ≥ 80% | pest or weed control at 200 ppm [3]: ≥ 80%

COc1cc(C(=O)Nc2ccc(-c3noc(C(F)(F)F)n3)cc2)cc(OC)c1OC [Compound 1.6, 3,4,5-trimethoxy-N-[4-[5-(trifluoromethyl)-1,2,4-oxadiazol-3-yl]phenyl]benzamide]
pest or weed control at 200 ppm [2]: ≥ 80% | pest or weed control at 200 ppm (Phakopsora pachyrhizi): ≥ 80% | pest or weed control at 100 ppm (Uromyces viciae-fabae): ≥ 80%

CCC(=O)N(CC(=O)NC(C)(C)C)c1ccc(-c2noc(C(F)(F)F)n2)cc1 [Compound 1.57, N-[2-(tert-butylamino)-2-oxo-ethyl]-N-[4-[5-(trifluoromethyl)-1,2,4-oxadiazol-3-yl]phenyl] propanamide]
pest or weed control at 200 ppm [2]: ≥ 80% | inhibition of growth at 20 ppm [1]: ≥ 80% | pest or weed control at 100 ppm (Uromyces viciae-fabae): ≥ 80%

N#Cc1cc(F)c(C(=O)Nc2ccc(-c3noc(C(F)(F)F)n3)cc2)c(F)c1 [Compound 1.15, 4-cyano-2,6-difluoro-N-[4-[5-(trifluoromethyl)-1,2,4-oxadiazol-3-yl]phenyl]benzamide]
inhibition of growth at 20 ppm [1]: ≥ 80% | pest or weed control at 100 ppm (Uromyces viciae-fabae): ≥ 80%

COCC(=O)N(CC(=O)NC(C)(C)C)c1ccc(-c2noc(C(F)(F)F)n2)cc1 [Compound 1.58, N-tert-butyl-2-[N-(2-methoxyacetyl)-4-[5-(trifluoromethyl)-1,2,4-oxadiazol-3-yl]anilino]acetamide]
pest or weed control at 200 ppm [2]: ≥ 80% | pest or weed control at 100 ppm (Uromyces viciae-fabae): ≥ 80%

CC(C)NC(=O)c1c(F)cccc1C(=O)Nc1ccc(-c2noc(C(F)(F)F)n2)cc1 [Compound 1.29, 3-fluoro-N2-isopropyl-N1-[4-[5-(trifluoromethyl)-1,2,4-oxadiazol-3-yl]phenyl] phthalamide]
pest or weed control at 200 ppm [2]: ≥ 80% | inhibition of growth at 20 ppm [1]: ≥ 80% | pest or weed control at 200 ppm (Phakopsora pachyrhizi): ≥ 80% | pest or weed control at 100 ppm (Uromyces viciae-fabae): ≥ 80%

COc1cc(CCC(=O)Nc2ccc(-c3noc(C(F)(F)F)n3)cc2)cc(OC)c1OC [Compound 1.13, N-[4-[5-(trifluoromethyl)-1,2,4-oxadiazol-3-yl]phenyl]-3-(3,4,5-trimethoxyphenyl) propanamide]
pest or weed control at 200 ppm [2]: ≥ 80% | inhibition of growth at 20 ppm [1]: ≥ 80% | pest or weed control at 100 ppm (Uromyces viciae-fabae): ≥ 80%

O=C(CCC(F)(F)F)Nc1ccc(-c2noc(C(F)(F)F)n2)cc1 [Compound 1.20, 4,4,4-trifluoro-N-[4-[5-(trifluoromethyl)-1,2,4-oxadiazol-3-yl]phenyl]butanamide]
pest or weed control at 200 ppm [2]: ≥ 80% | inhibition of growth at 20 ppm [1]: ≥ 80% | pest or weed control at 200 ppm (Phakopsora pachyrhizi): ≥ 80% | pest or weed control at 100 ppm (Uromyces viciae-fabae): ≥ 80%

COc1ccc(Br)cc1C(C)C(=O)Nc1ccc(-c2noc(C(F)(F)F)n2)cc1 (stereo not shown) [Compound 1.24, 2-(5-bromo-2-methoxy-phenyl)-N-[4-[5-(trifluoromethyl)-1,2,4-oxadiazol-3-yl]phenyl] propanamide]
pest or weed control at 100 ppm (Uromyces viciae-fabae): ≥ 80%
